The values that follow come from patent publication US20220142990A1, “EXTERNAL PREPARATION FOR TREATING A VASCULAR ANOMALY” (OSAKA UNIVERSITY, priority 2019, published 2022).

A short description of this series: Test Example 4: sirolimus in blood of the patients. The series is classed as in vivo, human. The conditions noted are these: Patients A, B, C; 0.2% sirolimus gel applied to lesion twice a day for 12 weeks; not detected, measurement limit value. Here is the method:
The gel containing 0.2 wt % of sirolimus produced in Production Example 3 (hereinafter referred to as 0.2% sirolimus gel) was applied to a lesion portion twice a day for 12 weeks. An approximate size of an application target lesion was measured to determine a single application amount. The application amount was set to about 125 mg of gel per 50 cm^2. In the sirolimus gel treatment period (12 weeks), no combined medicine was used, and no combination therapy was performed.
Sirolimus was not detected from the blood of any of the patients (measurement limit value: 1.0 ng/mL).

Consider `CO[C@H]1C[C@@H]2CC[C@@H](C)[C@@](O)(O2)C(=O)C(=O)N2CCCC[C@H]2C(=O)O[C@H]([C@H](C)C[C@@H]2CC[C@@H](O)[C@H](OC)C2)CC(=O)[C@H](C)/C=C(\C)[C@@H](O)[C@@H](OC)C(=O)[C@H](C)C[C@H](C)/C=C/C=C/C=C/1C` [Sirolimus, sirolimus], for which the sirolimus in blood was < 1.0 ng/mL.
